Source: PubChem BioAssay (NCI)
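1) Cells in 96-well plates. 2) Compound, 48 h, 5 concentrations. 3) Linear interpolation between surrounding doses. 4) Unreached endpoint = highest concentration. GI50 = concentration required for 50% inhibition of growth. TGI marks complete inhibition of growth.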

Columns and labels:
Assay in all cases: NCI tumour cell line growth inhibition, 48 h
IGROV1 ovarian = test system: IGROV1 ovarian
HOP-62 NSCLC = test system: HOP-62 NSCLC
SN12C renal = test system: SN12C renal
A498 renal = test system: A498 renal
CAKI-1 renal = test system: CAKI-1 renal
HT29 colon = test system: HT29 colon
A549 NSCLC = test system: A549 NSCLC
NCI/ADR-RES ovarian = test system: NCI/ADR-RES ovarian
T-47D breast = test system: T-47D breast
PC-3 prostate = test system: PC-3 prostate

Row | SMILES | GI50 (IGROV1 ovarian) | TGI (IGROV1 ovarian) | GI50 (HOP-62 NSCLC) | TGI (HOP-62 NSCLC) | GI50 (SN12C renal) | TGI (SN12C renal) | GI50 (A498 renal) | TGI (A498 renal) | GI50 (CAKI-1 renal) | TGI (CAKI-1 renal) | GI50 (HT29 colon) | TGI (HT29 colon) | GI50 (A549 NSCLC) | TGI (A549 NSCLC) | GI50 (NCI/ADR-RES ovarian) | TGI (NCI/ADR-RES ovarian) | GI50 (T-47D breast) | TGI (T-47D breast) | GI50 (PC-3 prostate) | TGI (PC-3 prostate)
1 | c1cc[c]([Sn]([S]c2cccc3cccnc23)([S]c2cccc3cccnc23)[c]2ccccc2)cc1 | 0.267 µM | 0.789 µM | 0.411 µM | 1.75 µM | 0.284 µM | 0.954 µM | 0.0359 µM | 0.202 µM | 0.134 µM | 0.43 µM | 0.222 µM | 0.565 µM | 0.363 µM | 1.38 µM | – | – | – | – | – | –
2 | CC(C)(C)OC(=O)CN1CCc2c(sc3ncnc(N/N=C/c4cccc5ccccc45)c23)C1 | 1.87 µM | 7.4 µM | 2.31 µM | 11.4 µM | 3.65 µM | 9.04 µM | 3.78 µM | 11.9 µM | 3.3 µM | 18.7 µM | 3.47 µM | 12.3 µM | 3.03 µM | > 33.3 µM | 3.55 µM | 14.5 µM | 1.83 µM | 17.9 µM | 2.04 µM | > 33.3 µM
3 | CN1CCN(CCNc2ccc(CO)c3sc4ccccc4c(=O)c23)CC1 | – | 27.2 µM | – | 18.6 µM | 3.64 µM | 15.4 µM | 2.51 µM | 8.2 µM | – | 19.8 µM | – | 7.86 µM | – | 11.3 µM | 2.56 µM | 14.3 µM | 3.37 µM | 19.4 µM | 3.5 µM | 14.5 µM
4 | c1cc(-c2cn[nH]c2)cc(-c2cn[nH]c2)c1 | – | > 100 µM | – | > 100 µM | – | > 100 µM | – | 89.7 µM | – | 83.9 µM | – | – | – | 69.5 µM | – | – | – | – | – | –
5 | C=CCC(N[C@H](CO)c1ccccc1)c1cn(S(=O)(=O)c2ccc(C)cc2)c2ccccc12 (stereo partly specified) | 14.6 µM | 47.3 µM | 16.8 µM | 33.5 µM | 16.9 µM | 32.2 µM | – | – | 11.5 µM | 37.3 µM | 31.2 µM | > 100 µM | 12.7 µM | 32.4 µM | 18.9 µM | 46.2 µM | 55.9 µM | > 100 µM | 17.8 µM | 77.1 µM
6 | BrC1=CC=C2NCCCCCCN=C3C=CC(Br)=CC=C3NCCCCCCN=C2C=C1 | – | > 25.5 µM | – | > 25.5 µM | – | > 25.5 µM | – | > 25.5 µM | – | > 25.5 µM | – | > 25.5 µM | – | > 25.5 µM | – | – | – | – | – | –
7 | COc1ccc(C(=O)C(C(=O)C(=O)Nc2nccs2)c2ccc(OC)cc2)cc1 (stereo unspecified) | – | > 100 µM | – | – | – | > 100 µM | – | > 100 µM | – | > 100 µM | – | > 100 µM | – | > 100 µM | – | – | – | – | – | –
8 | CCCCN(CCCC)C(=O)C(=O)C(C)C(=O)CC (stereo unspecified) | – | > 100 µM | – | > 100 µM | – | > 100 µM | – | – | – | > 100 µM | – | > 100 µM | – | > 100 µM | – | – | – | – | – | –
9 | CC1CCP(=O)(c2ccccc2)CC1 (stereo unspecified) | – | > 100 µM | – | > 100 µM | – | > 100 µM | – | – | – | > 100 µM | – | > 100 µM | – | > 100 µM | – | – | – | – | – | –
10 | Nc1ccc2ccc(NS(=O)(=O)N3CCCCC3)cc2c1 | 0.765 µM | > 100 µM | – | > 100 µM | 0.653 µM | > 100 µM | 0.176 µM | 0.872 µM | 0.584 µM | > 100 µM | 0.4 µM | > 100 µM | 1 µM | > 46 µM | – | – | 0.381 µM | > 75.3 µM | 1.28 µM | > 100 µM
11 | C#C[C@H](CCCC)OC(=O)N[C@H](C)c1ccccc1 | – | > 100 µM | – | > 100 µM | – | > 100 µM | – | – | – | > 100 µM | – | > 100 µM | – | > 100 µM | – | – | – | – | – | –
12 | C(=C\c1nccc2c1[nH]c1ccccc12)/c1ccccc1 | 0.664 µM | 23.6 µM | 2.97 µM | 22.3 µM | 3.83 µM | 76.7 µM | 4.36 µM | 15.9 µM | – | – | 3.07 µM | 11.9 µM | 4.09 µM | > 100 µM | 3.1 µM | 20.3 µM | 3.6 µM | 28.2 µM | 2.82 µM | > 100 µM
13 | Cc1cccc(C)c1NC(=O)CCC(=O)NC(N)=S | – | > 100 µM | – | > 100 µM | – | > 100 µM | – | > 100 µM | – | > 100 µM | – | > 100 µM | – | > 100 µM | – | – | – | – | – | –
14 | O=[N+]([O-])[O-].O=[N+]([O-])[O-].[Au].[Au].c1ccc([P-]c2ccccc2)cc1.c1ccc([P-]c2ccccc2)cc1 | 46.2 µM | > 100 µM | > 100 µM | > 100 µM | – | – | > 100 µM | > 100 µM | 26.9 µM | 52.7 µM | 71.3 µM | > 100 µM | 84 µM | > 100 µM | – | – | – | – | – | –
15 | COc1cc(C2=NN(c3ccc(S(N)(=O)=O)cc3)C(c3ccc(Cl)cc3)C2)cc(OC)c1OC (stereo unspecified) | 8.09 µM | > 100 µM | 5.8 µM | > 100 µM | 6.67 µM | > 100 µM | 1.93 µM | 7.68 µM | – | – | 4.15 µM | > 100 µM | 4 µM | > 100 µM | 3.76 µM | > 100 µM | 1.74 µM | 14.7 µM | 3.05 µM | > 100 µM
16 | CO[C@@]12C[C@H]3[C@@H]([C@@H](O)[C@@H](OC(=O)/C=C/c4ccccc4)[C@@]4(O)C(C)(C)CCC[C@]34C)[C@@H](C)C1=CC(=O)O2 | 29.5 µM | > 100 µM | – | – | 4.84 µM | 19.5 µM | 11.3 µM | 26.3 µM | 6.76 µM | 30.8 µM | 4.6 µM | 26.5 µM | 3.64 µM | 18.4 µM | 11 µM | > 100 µM | – | – | 5.13 µM | 29.2 µM
17 | OCC#Cc1ccccc1C#Cc1ccc(C#Cc2ccccc2C#CCO)s1 | 13.7 µM | 34.2 µM | 22.6 µM | 53.7 µM | 20.1 µM | 43 µM | – | – | 12.1 µM | 25.1 µM | – | – | 19.1 µM | 41 µM | 21.1 µM | 36 µM | 17.3 µM | 53.8 µM | 14.8 µM | 28.7 µM
18 | C#Cc1cccc(Oc2ccc(NC(=O)CCl)cc2)c1 | 5.85 µM | 42.4 µM | > 82.5 µM | > 82.5 µM | > 82.5 µM | > 82.5 µM | – | – | > 82.5 µM | > 82.5 µM | > 82.5 µM | > 82.5 µM | > 82.5 µM | > 82.5 µM | > 82.5 µM | > 82.5 µM | > 82.5 µM | > 82.5 µM | > 82.5 µM | > 82.5 µM
